Key:
[1] = system: S. aureus DSM 20231; test: fitness (endpoint OD595 vs no drug) (fraction); higher = more growth
Summary of the method: (§1)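 Fitness is computed from the optical density at which cultures reach stationary phase, divided by the robust mean of no-drug control wells. Any value above 1 is set to 1. Cultures started at OD595 0.01 in 384-well plates with TSB, LB Lennox or CY at 37 °C, and OD595 was read every 30 min for 14 h against a first-reading background.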

[2] = system: S. aureus Newman; test: as above
Summary of the method: as §1

[3] = system: S. pneumoniae D39V; test: as above
Summary of the method: as §1

[4] = system: B. subtilis 168; test: Bliss interaction score (quartile over a dose matrix) (fitness difference); higher = more antagonism (negative = synergy)
Summary of the method: (§2)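 The Bliss score is observed minus expected fitness, where expected fitness is the product of the single-drug fitness values inferred from the combination data. Fitness is the OD595 at the onset of stationary phase over the plate's robust no-drug mean, capped at 1. Scores are summarised by quartiles over technical, biological and donor/recipient replicates.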

[5] = system: S. aureus DSM 20231; test: as above
Summary of the method: as §2

[6] = system: S. aureus Newman; test: as above
Summary of the method: as §2

[7] = system: S. pneumoniae D39V; test: as above
Summary of the method: as §2
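Throughout, for Bliss interaction score (quartile over a dose matrix): first quartile when negative (synergy) and third quartile when positive (antagonism).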
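Throughout, for fitness (endpoint OD595 vs no drug): OD595 on entry to stationary phase over no-drug wells; at most 1.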

CC1(C)S[C@@H]2[C@H](NC(=O)[C@H](N)c3ccc(O)cc3)C(=O)N2[C@H]1C(=O)O [Amoxicillin] + CCC[C@@H]1C[C@@H](C(=O)N[C@@H]([C@H]2O[C@H](SC)[C@H](O)[C@@H](O)[C@H]2O)[C@H](C)Cl)N(C)C1 [Clindamycin]
Settings | fitness
[1], first compound 0.0625 µg/mL, partner 0.0625 µg/mL | 0.132
[1], first compound 0.0625 µg/mL, partner 0.125 µg/mL | 0.0693
[1], first compound 0.125 µg/mL, partner 0.0312 µg/mL | 0.157
[1], first compound 0.125 µg/mL, partner 0.0625 µg/mL | 0.0589
[1], first compound 0.125 µg/mL, partner 0.125 µg/mL | 0.0684
[1], first compound 0.25 µg/mL, partner 0.0312 µg/mL | 0.0508
[1], first compound 0.25 µg/mL, partner 0.0625 µg/mL | 0.038
[1], first compound 0.25 µg/mL, partner 0.125 µg/mL | 0.0621
[1], first compound 0.5 µg/mL, partner 0.0312 µg/mL | 0.0205
[1], first compound 0.5 µg/mL, partner 0.0625 µg/mL | 0.0091
[1], first compound 0.5 µg/mL, partner 0.125 µg/mL | 0.0231
[2], first compound 0.0625 µg/mL, partner 0.0312 µg/mL | 0.698
[2], first compound 0.125 µg/mL, partner 0.125 µg/mL | 0.0978
[3], first compound 0.0008 µg/mL, partner 0.0125 µg/mL | 0.796
[3], first compound 0.0008 µg/mL, partner 0.025 µg/mL | 0.519
[3], first compound 0.0008 µg/mL, partner 0.05 µg/mL | 0.203
[3], first compound 0.0015 µg/mL, partner 0.0125 µg/mL | 0.77
[3], first compound 0.0015 µg/mL, partner 0.015 µg/mL | 0.92
[3], first compound 0.0015 µg/mL, partner 0.025 µg/mL | 0.488
[3], first compound 0.0015 µg/mL, partner 0.03 µg/mL | 0.757
[3], first compound 0.0015 µg/mL, partner 0.05 µg/mL | 0.186
[3], first compound 0.0015 µg/mL, partner 0.06 µg/mL | 0.539
[3], first compound 0.003 µg/mL, partner 0.0125 µg/mL | 0.77
[3], first compound 0.003 µg/mL, partner 0.015 µg/mL | 0.872
[3], first compound 0.003 µg/mL, partner 0.025 µg/mL | 0.482
[3], first compound 0.003 µg/mL, partner 0.03 µg/mL | 0.726
[3], first compound 0.003 µg/mL, partner 0.05 µg/mL | 0.186
[3], first compound 0.003 µg/mL, partner 0.06 µg/mL | 0.509

fitness, [3], one replicate
Settings | partner 0.015 µg/mL | partner 0.03 µg/mL | partner 0.06 µg/mL
first compound 0.0008 µg/mL | 0.962 | 0.84 | 0.557
first compound 0.006 µg/mL | 0.505 | 0.385 | 0.298

Settings | Bliss interaction score
[4] | -0.0391
[5] | 0.0324
[6] | -0.0717
[7] | 0.151

CC1(C)S[C@@H]2[C@H](NC(=O)[C@H](N)c3ccc(O)cc3)C(=O)N2[C@H]1C(=O)O [Amoxicillin] + CN(N=O)C(=O)N[C@@H](C=O)[C@@H](O)[C@H](O)[C@H](O)CO [Streptozotocin]
fitness
Settings | first compound 0.0008 µg/mL | first compound 0.0015 µg/mL | first compound 0.003 µg/mL | first compound 0.0625 µg/mL | first compound 0.125 µg/mL | first compound 0.25 µg/mL
[1], partner 0.15 µg/mL | – | – | – | 0.434 | 0.362 | 0.0212
[1], partner 0.3 µg/mL | – | – | – | 0.496 | 0.286 | 0.0296
[1], partner 0.6 µg/mL | – | – | – | 0.41 | 0.234 | 0.0211
[2], partner 0.15 µg/mL | – | – | – | 0.769 | 0.736 | 0.753
[2], partner 0.3 µg/mL | – | – | – | 0.669 | 0.677 | 0.64
[2], partner 0.6 µg/mL | – | – | – | 0.523 | 0.524 | 0.491
[3], partner 1.2 µg/mL | 0.935 | 0.866 | 0.844 | – | – | –
[3], partner 2.4 µg/mL | 0.963 | 0.945 | 0.929 | – | – | –
[3], partner 4.8 µg/mL | 0.928 | 0.877 | 0.812 | – | – | –

fitness, one replicate
Settings | partner 0.15 µg/mL | partner 0.3 µg/mL | partner 0.6 µg/mL | partner 1.2 µg/mL | partner 2.4 µg/mL | partner 4.8 µg/mL
[1], first compound 0.5 µg/mL | 0.0024 | 0.0025 | 0 | – | – | –
[3], first compound 0.006 µg/mL | – | – | – | 0.376 | 0.405 | 0.365

Settings | Bliss interaction score
[4] | 0.0362
[5] | -0.0844
[6] | -0.0299
[7] | -0.0885

CC1(C)S[C@@H]2[C@H](NC(=O)[C@H](N)c3ccc(O)cc3)C(=O)N2[C@H]1C(=O)O [Amoxicillin] + Cc1cc(NS(=O)(=O)c2ccc(N)cc2)no1 [Sulfamethoxazol]
fitness
Settings | partner 1 µg/mL | partner 2 µg/mL | partner 4 µg/mL
[1], first compound 0.0625 µg/mL | 0.445 | 0.506 | 0.522
[1], first compound 0.125 µg/mL | 0.376 | – | –
[1], first compound 0.25 µg/mL | 0.0292 | 0.0368 | 0.035
[2], first compound 0.0625 µg/mL | 0.878 | 0.88 | 0.883
[2], first compound 0.125 µg/mL | 0.858 | 0.876 | 0.876
[2], first compound 0.25 µg/mL | 0.81 | 0.847 | 0.844
[3], first compound 0.0008 µg/mL | 0.936 | 0.972 | 0.926
[3], first compound 0.0015 µg/mL | 0.882 | 0.928 | 0.878
[3], first compound 0.003 µg/mL | 0.87 | 0.883 | 0.875

fitness, one replicate
Settings | partner 1 µg/mL | partner 2 µg/mL | partner 4 µg/mL | partner 8 µg/mL
[1], first compound 0.5 µg/mL | 0.015 | 0.0516 | 0.0038 | –
[2], first compound 0.125 µg/mL | – | – | – | 0.948
[2], first compound 0.25 µg/mL | – | – | – | 0.938
[2], first compound 0.5 µg/mL | – | 0.812 | 0.852 | 0.84
[3], first compound 0.006 µg/mL | 0.368 | 0.423 | 0.388 | –

Settings | Bliss interaction score
[4] | -0.0805
[5] | -0.0441
[6] | -0.0589
[7] | -0.09

Source: the supplement of paper PMC10627819
